≈ marks a conversion by molar mass, not a printed value.
What was measured:
[1] = physchem; details: n-octanol/phosphate buffer, pH 7.4
[2] = physchem; details: buffer, pH 9
[3] = tested on: T1, UDP-3-O-acyl-N-acetylglucosamine deacetylase (Pseudomonas aeruginosa (strain ATCC 15692 / PAO1 / 1C / PRS 101 / LMG12228)), P47205 [C40S]; details: 25 uM
T1 sequence (whole entry): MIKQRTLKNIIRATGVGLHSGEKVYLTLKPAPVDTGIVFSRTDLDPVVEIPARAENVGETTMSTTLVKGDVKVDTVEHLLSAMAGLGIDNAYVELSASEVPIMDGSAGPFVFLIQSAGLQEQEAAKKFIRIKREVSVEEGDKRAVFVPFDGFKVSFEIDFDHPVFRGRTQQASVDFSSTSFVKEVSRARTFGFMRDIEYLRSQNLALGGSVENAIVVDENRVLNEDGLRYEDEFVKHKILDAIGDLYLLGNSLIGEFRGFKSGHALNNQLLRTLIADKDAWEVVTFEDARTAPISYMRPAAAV

[4] = physchem; details: buffer, pH 7
[5] = tested on: Klebsiella pneumoniae; assay: microbe, parasite or virus in culture; details: T6474
[6] = tested on: Escherichia coli; assay: microbe, parasite or virus in culture; details: ATCC 25922
[7] = physchem
[8] = tested on: Pseudomonas aeruginosa; assay: microbe, parasite or virus in culture; details: ATCC 27853
[9] = physchem; details: buffer, pH 4
[10] = tested on: T2, UDP-3-O-acyl-N-acetylglucosamine deacetylase (Escherichia coli K-12), P0A725 [C125S]; details: 25 uM
T2 sequence (whole entry): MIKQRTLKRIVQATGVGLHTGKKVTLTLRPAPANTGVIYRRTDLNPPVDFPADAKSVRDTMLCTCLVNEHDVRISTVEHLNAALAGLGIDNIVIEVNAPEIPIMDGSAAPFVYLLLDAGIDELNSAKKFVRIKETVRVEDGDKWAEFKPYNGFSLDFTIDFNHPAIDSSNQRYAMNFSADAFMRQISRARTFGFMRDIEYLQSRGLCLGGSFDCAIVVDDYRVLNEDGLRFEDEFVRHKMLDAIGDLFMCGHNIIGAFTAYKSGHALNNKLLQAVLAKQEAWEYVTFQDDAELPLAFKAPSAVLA

[11] = in vivo; details: mouse, sc, 150 mg/kg
[12] = in vitro; details: rat, liver microsomes
[13] = in vitro; details: rat, hepatocytes

Structure (SMILES) | logD [1] | solubility at 24 h [2] [µg/mL] | deltaTm [3] [K] | solubility at 24 h [4] [µg/mL] | MIC [5] [µg/mL] | MIC [6] [µg/mL] | pKa [7] | MIC [8] [µg/mL] | solubility at 24 h [9] [µg/mL] | deltaTm [10] [K] | AUC(0-t) at 24 h [11] [ng·h/mL] | microsomal CLint at 1 µM [12] [µL/min/mg] | hepatocyte CLint at 1 µM [13] [µL/min/1e6 cells]
CN(C)C1(C#CC#Cc2cc3n(c2)C(=O)N(CC[C@](C)(C(=O)NO)S(C)(=O)=O)C3)CC1 | 2.1 | 95 (≈ 213 µM) | 13.4 | 15 (≈ 33.6 µM) | 0.5 (≈ 1.12 µM) | 0.25 (≈ 0.56 µM) | 5.5 | 0.5 (≈ 1.12 µM) | 412 (≈ 923 µM) | 11.6 |  |  | 
CN1CCC(C#CC#Cc2cc3n(c2)C(=O)N(CC[C@](C)(C(=O)NO)S(C)(=O)=O)C3)CC1 | 0.2 | 574 (≈ 1250 µM) | 11.3 | > 780 | 4 (≈ 8.69 µM) | 4 (≈ 8.69 µM) | 9 | 1 (≈ 2.17 µM) | > 780 | 10.6 |  |  | 
CC(=O)N1CC(C#CC#Cc2cc3n(c2)C(=O)N(CC[C@](C)(C(=O)NO)S(C)(=O)=O)C3)C1 | 0.3 | > 780 | 12.4 | > 780 | 1 (≈ 2.17 µM) | 1 (≈ 2.17 µM) |  | 1 (≈ 2.17 µM) | > 780 | 9.7 |  |  | 
C[C@@](CCN1Cc2cc(C#CC#CC3CCN(C4COC4)CC3)cn2C1=O)(C(=O)NO)S(C)(=O)=O | 1.1 | > 850 | 13.2 | 329 (≈ 655 µM) | 1 (≈ 1.99 µM) | 0.5 (≈ 0.995 µM) | 6.2 | 2 (≈ 3.98 µM) | > 850 | 11.1 |  |  | 
C[C@@](CCN1Cc2cc(C#CC#CC3(CN)CC3)cn2C1=O)(C(=O)NO)S(C)(=O)=O | -0.4 | > 730 | 10.7 | 552 (≈ 1280 µM) | 16 (≈ 37 µM) | 8 (≈ 18.5 µM) | 9.2 | 16 (≈ 37 µM) | > 730 | 9.6 |  |  | 
CC(C)(O)CN1CC(C#CC#Cc2cc3n(c2)C(=O)N(CC[C@](C)(C(=O)NO)S(C)(=O)=O)C3)C1 | 0.7 | > 830 | 12.1 | > 830 | 1 (≈ 2.04 µM) | 0.5 (≈ 1.02 µM) | 7.8 | 0.5 (≈ 1.02 µM) | > 830 | 10.3 | 47300 |  | 
C[C@@](CCN1Cc2cc(C#CC#CC3CNC3)cn2C1=O)(C(=O)NO)S(C)(=O)=O | -1 | > 710 | 9.3 | > 710 | 4 (≈ 9.56 µM) | 8 (≈ 19.1 µM) | 9.4 | 1 (≈ 2.39 µM) | > 710 | 8 |  |  | 
CN1CC(C#CC#Cc2cc3n(c2)C(=O)N(CC[C@](C)(C(N)=O)S(C)(=O)=O)C3)C1 | 0.5 | 92 (≈ 221 µM) | 0.3 | 706 (≈ 1700 µM) | > 32 | > 32 | 8.4 | > 32 | > 700 | 0 |  |  | 
C[C@]1(CO)C[C@@H]1C#CC#Cc1cc2n(c1)C(=O)N(CC[C@](C)(C(=O)NO)S(C)(=O)=O)C2 | 1.6 | 506 (≈ 1130 µM) |  | 401 (≈ 896 µM) | 0.25 (≈ 0.559 µM) | 0.25 (≈ 0.559 µM) |  | 0.25 (≈ 0.559 µM) | 344 (≈ 769 µM) |  |  | < 10 | 55
CC(C)N1CC(C#CC#Cc2cc3n(c2)C(=O)N(CC[C@](C)(C(=O)NO)S(C)(=O)=O)C3)C1 | 1 | 420 (≈ 912 µM) | 11.2 | 398 (≈ 864 µM) | 0.25 (≈ 0.543 µM) | 0.25 (≈ 0.543 µM) | 8.3 | 0.5 (≈ 1.09 µM) | > 780 | 9.6 |  |  | 
CN1CCC(F)(C#CC#Cc2cc3n(c2)C(=O)N(CC[C@](C)(C(=O)NO)S(C)(=O)=O)C3)CC1 | 1 | 203 (≈ 424 µM) | 12 | 384 (≈ 802 µM) | 1 (≈ 2.09 µM) | 0.5 (≈ 1.04 µM) | 8 | 1 (≈ 2.09 µM) | > 810 | 9.6 |  |  | 

— ChEMBL document CHEMBL4321867, “Optimization of LpxC Inhibitor Lead Compounds Focusing on Efficacy and Formulation for High Dose Intravenous Administration” (J Med Chem, 2020)
